Measurements reported in the NIST ThermoML archive (doi:10.1021/je800609u).
± gives the expanded uncertainty stated by the source.

Experiment: osmotic coefficient (dimensionless); mn = molality of the nth substance listed, in mol/kg
Conditions: Liquid, vapor pressure osmometery method

Question: Which results are given for `CCCCn1cc[n+](C)c1.[Cl-]` [1-butyl-3-methylimidazolium chloride] + O?
Answer: osmotic coefficient (298.15 K, m1 = 0.0105): 1 ± 0.012; osmotic coefficient (298.15 K, m1 = 0.023): 0.958 ± 0.012; osmotic coefficient (298.15 K, m1 = 0.0289): 0.932 ± 0.012; osmotic coefficient (298.15 K, m1 = 0.0398): 0.892 ± 0.013; osmotic coefficient (298.15 K, m1 = 0.0621): 0.855 ± 0.013; osmotic coefficient (298.15 K, m1 = 0.0803): 0.833 ± 0.013; osmotic coefficient (298.15 K, m1 = 0.0986): 0.827 ± 0.013; osmotic coefficient (298.15 K, m1 = 0.1413): 0.814 ± 0.014; osmotic coefficient (298.15 K, m1 = 0.1816): 0.789 ± 0.014; osmotic coefficient (298.15 K, m1 = 0.2223): 0.779 ± 0.014; osmotic coefficient (298.15 K, m1 = 0.2764): 0.772 ± 0.014; osmotic coefficient (298.15 K, m1 = 0.3386): 0.768 ± 0.015; osmotic coefficient (298.15 K, m1 = 0.371): 0.764 ± 0.015; osmotic coefficient (298.15 K, m1 = 0.4863): 0.735 ± 0.015; osmotic coefficient (298.15 K, m1 = 0.599): 0.718 ± 0.016; osmotic coefficient (298.15 K, m1 = 0.7152): 0.716 ± 0.016; osmotic coefficient (298.15 K, m1 = 0.9754): 0.699 ± 0.016; osmotic coefficient (298.15 K, m1 = 1.492): 0.686 ± 0.016; osmotic coefficient (298.15 K, m1 = 2): 0.686 ± 0.016; osmotic coefficient (298.15 K, m1 = 2.962): 0.711 ± 0.016; osmotic coefficient (308.15 K, m1 = 0.0105): 0.948 ± 0.012; osmotic coefficient (308.15 K, m1 = 0.023): 0.929 ± 0.012; osmotic coefficient (308.15 K, m1 = 0.0289): 0.924 ± 0.012; osmotic coefficient (308.15 K, m1 = 0.0398): 0.911 ± 0.012; osmotic coefficient (308.15 K, m1 = 0.0621): 0.866 ± 0.013; osmotic coefficient (308.15 K, m1 = 0.0803): 0.861 ± 0.013; osmotic coefficient (308.15 K, m1 = 0.0986): 0.864 ± 0.013; osmotic coefficient (308.15 K, m1 = 0.1413): 0.844 ± 0.013; osmotic coefficient (308.15 K, m1 = 0.1816): 0.817 ± 0.014; osmotic coefficient (308.15 K, m1 = 0.2223): 0.794 ± 0.014; osmotic coefficient (308.15 K, m1 = 0.2764): 0.79 ± 0.014; osmotic coefficient (308.15 K, m1 = 0.3386): 0.779 ± 0.014; osmotic coefficient (308.15 K, m1 = 0.371): 0.775 ± 0.014; osmotic coefficient (308.15 K, m1 = 0.4863): 0.747 ± 0.015; osmotic coefficient (308.15 K, m1 = 0.599): 0.738 ± 0.015; osmotic coefficient (308.15 K, m1 = 0.7152): 0.731 ± 0.015; osmotic coefficient (308.15 K, m1 = 0.9754): 0.709 ± 0.016; osmotic coefficient (308.15 K, m1 = 1.492): 0.692 ± 0.016; osmotic coefficient (308.15 K, m1 = 2): 0.694 ± 0.016; osmotic coefficient (308.15 K, m1 = 2.962): 0.721 ± 0.016; osmotic coefficient (318.15 K, m1 = 0.0105): 0.958 ± 0.012; osmotic coefficient (318.15 K, m1 = 0.023): 0.932 ± 0.012; osmotic coefficient (318.15 K, m1 = 0.0289): 0.935 ± 0.012; osmotic coefficient (318.15 K, m1 = 0.0398): 0.916 ± 0.012; osmotic coefficient (318.15 K, m1 = 0.0621): 0.881 ± 0.013; osmotic coefficient (318.15 K, m1 = 0.0803): 0.869 ± 0.013; osmotic coefficient (318.15 K, m1 = 0.0986): 0.865 ± 0.013; osmotic coefficient (318.15 K, m1 = 0.1413): 0.857 ± 0.013; osmotic coefficient (318.15 K, m1 = 0.1816): 0.823 ± 0.014; osmotic coefficient (318.15 K, m1 = 0.2223): 0.807 ± 0.014; osmotic coefficient (318.15 K, m1 = 0.2764): 0.797 ± 0.014; osmotic coefficient (318.15 K, m1 = 0.3386): 0.798 ± 0.014; osmotic coefficient (318.15 K, m1 = 0.371): 0.784 ± 0.014; osmotic coefficient (318.15 K, m1 = 0.4863): 0.762 ± 0.015; osmotic coefficient (318.15 K, m1 = 0.599): 0.75 ± 0.015; osmotic coefficient (318.15 K, m1 = 0.7152): 0.748 ± 0.015; osmotic coefficient (318.15 K, m1 = 0.9754): 0.723 ± 0.015; osmotic coefficient (318.15 K, m1 = 1.492): 0.713 ± 0.016; osmotic coefficient (318.15 K, m1 = 2): 0.706 ± 0.016; osmotic coefficient (318.15 K, m1 = 2.962): 0.729 ± 0.015; osmotic coefficient (328.15 K, m1 = 0.0105): 0.978 ± 0.012; osmotic coefficient (328.15 K, m1 = 0.023): 0.939 ± 0.012; osmotic coefficient (328.15 K, m1 = 0.0289): 0.938 ± 0.012; osmotic coefficient (328.15 K, m1 = 0.0398): 0.921 ± 0.012; osmotic coefficient (328.15 K, m1 = 0.0621): 0.906 ± 0.012; osmotic coefficient (328.15 K, m1 = 0.0803): 0.873 ± 0.013; osmotic coefficient (328.15 K, m1 = 0.0986): 0.867 ± 0.013; osmotic coefficient (328.15 K, m1 = 0.1413): 0.862 ± 0.013; osmotic coefficient (328.15 K, m1 = 0.1816): 0.832 ± 0.013; osmotic coefficient (328.15 K, m1 = 0.2223): 0.822 ± 0.014; osmotic coefficient (328.15 K, m1 = 0.2764): 0.81 ± 0.014; osmotic coefficient (328.15 K, m1 = 0.3386): 0.803 ± 0.014; osmotic coefficient (328.15 K, m1 = 0.371): 0.79 ± 0.014; osmotic coefficient (328.15 K, m1 = 0.4863): 0.775 ± 0.014; osmotic coefficient (328.15 K, m1 = 0.599): 0.759 ± 0.015; osmotic coefficient (328.15 K, m1 = 0.7152): 0.755 ± 0.015; osmotic coefficient (328.15 K, m1 = 0.9754): 0.733 ± 0.015; osmotic coefficient (328.15 K, m1 = 1.492): 0.719 ± 0.016; osmotic coefficient (328.15 K, m1 = 2): 0.721 ± 0.016; osmotic coefficient (328.15 K, m1 = 2.962): 0.744 ± 0.015
